Literature values in PMC12979414, “Ascending single-dose study of the safety, pharmacokinetics, and pharmacodynamics of CSTI-500, a novel monoamine triple reuptake inhibitor, first-in-human” (Psychopharmacology, 2025).
Like-named read-outs stand apart in the source and are kept apart here.

Experiments:
[1] = clinical trials for Parkinson's disease; ref Astrup et al. [2008]
[2] = design: method as in Deest et al. [2021]; settings: PWS patients, 6 months, doses as low as 25 mg; ref Deest et al. [2021]
[3] = design: method as in Zheng et al. [2015]; settings: multiple-ascending-dose study, healthy subjects; ref Zheng et al. [2015]
[4] = PET occupancy study in healthy subjects, ref Learned et al. [2012]

Compound: CCOC[C@@H]1[C@@H](c2ccc(Cl)c(Cl)c2)C[C@@H]2CC[C@H]1N2C [tesofensine]
- weight loss as an AE [1]: significant weight loss

Compound: N[C@@H]1CC[C@@H](c2ccc(Cl)c(Cl)c2)c2ccccc21 [SEP-225289]
- SERT occupancy (SERT; single-doses 8-16 mg, healthy volunteers, all doses, ref DeLorenzo et al. [2011]): below 20%
- depression symptoms (phase II study in MDD patients, 8 weeks of treatment, ref Sharma et al. [2015]): no reduction of depression symptoms
- DAT occupancies, average values (DAT; single-doses 8-16 mg, healthy volunteers, ref DeLorenzo et al. [2011]): 33-49%

Compound: CN[C@H]1CC[C@@H](c2ccc(Cl)c(Cl)c2)c2ccccc21 [sertraline]
- temper outbursts [2]: significantly reduced the temper outbursts

Compound: CN1Cc2cc(-c3ccc(N)nn3)ccc2[C@H](c2ccc3ccccc3c2)C1 [BMS-820836]
- SERT occupancy (SERT; 0.5 mg/d, near steady-state, healthy subjects, ref Zheng et al. [2015]): about 80%
- clinical efficacy (0.25-2 mg/d, treatment-resistant MDD, two phase IIb trials, ref Bhagwagar et al. [2015]): no clinical superiority compared to duloxetine or escitalopram treatment
- striatal DAT occupancies (DAT; 0.5-2 mg/d, healthy volunteers, ref Zheng et al. [2015]): 14-30%
- heart rate [3]: linear dose-related escalation in heart rate

Compound: COC[C@@H]1[C@@H](c2ccc(Cl)c(Cl)c2)C[C@@H]2CC[C@H]1N2 [GSK372475]
- SERT occupancy (SERT; [4]): 55-75%
- efficacy and tolerability (1-2 mg/d, two 10-week phase II trials in MDD patients, ref Learned et al. [2012]): neither efficacious nor well-tolerated
- DAT occupancy (DAT; [4]): 60-80%
